These results are taken from paper PMC3598492, “Cannabinoid receptor type 2 (CB2)-selective N-aryl-oxadiazolyl-propionamides: synthesis, radiolabelling, molecular modelling and biological evaluation” (Organic and Medicinal Chemistry Letters, 2012).

What is called Ki is the dissociation constant of the complex between target and ligand, obtained from inhibition or displacement.

The target in one assay is T1, hCB2 (Homo sapiens, UniProt P34972).
T1 construct: host or cells: CHO (hCB2-CHO), crude membrane homogenates
T1 sequence (P34972 whole entry): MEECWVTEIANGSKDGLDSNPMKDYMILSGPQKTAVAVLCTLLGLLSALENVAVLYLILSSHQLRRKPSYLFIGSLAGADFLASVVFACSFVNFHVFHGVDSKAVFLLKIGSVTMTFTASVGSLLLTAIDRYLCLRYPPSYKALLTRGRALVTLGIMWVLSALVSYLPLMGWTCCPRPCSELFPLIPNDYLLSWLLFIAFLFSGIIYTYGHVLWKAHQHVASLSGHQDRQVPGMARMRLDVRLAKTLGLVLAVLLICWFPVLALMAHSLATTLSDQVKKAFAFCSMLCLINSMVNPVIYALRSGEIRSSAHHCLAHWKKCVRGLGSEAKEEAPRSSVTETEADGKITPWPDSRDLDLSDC
In words: Competitive [3H]CP55,940 binding on membrane homogenates of hCB2-CHO cells. The note with it: for Selectivity over hCB1: hCB2 versus hCB1. How it is done:
(§1) CHO cell lines stably transfected with human CB1 (hCB1-CHO; obtained from Euroscreen, Gosselies, Belgium) or human CB2 (hCB2-CHO; obtained from Paul L. Prather, Department of Pharmacology and Toxicology, College of Medicine, University of Arkansas for Medical Sciences, USA) were cultured in Ham's F12 medium or Dulbecco's modified Eagle's medium (DMEM) with 10% fetal calf serum, 100 IU/mL penicillin, 100 μg/mL streptomycin and 250 or 400 μg/mL of the selection antibiotic Geneticin (G418), respectively. The cells were cultured in a humidified atmosphere with 5% CO2 at 37°C. Confluent cell layers of 175-cm^2 flasks were scraped; cells were harvested by centrifugation (800 rpm, 3 min), counted by trypan blue staining, suspended in 200 μL of 50 mM tris(hydroxymethyl)aminomethane (TRIS; pH 7.4) at 4°C and stored at −32°C until the binding experiment.
(§2) Competitive binding experiments were performed with crude membrane homogenates obtained from hCB1-CHO or hCB2-CHO cells as described above. […] Incubations were terminated by rapid filtration through a GF-B glass fibre filter pre-incubated for 90 min at room temperature in freshly prepared 0.5% polyvinylpyrrolidone + 0.1% Tween 20 solution using a 48-well cell harvester (Brandel, Gaithersburg, MD, USA).
The corresponding inhibition constants (Ki) of test compounds were derived from the IC50 values using the Cheng-Prusoff equation [49]. All binding experiments were performed in triplicates, and data are given as mean values from independent experiments.

Assay [1] deals with T2, CB2 receptors in mouse spleen tissue (Mus musculus, UniProt P47936).
T2 construct: 12-μm-thick coronal sections obtained from the spleens of three animals; from tissue; host or cells: spleen sections of female CD-1 mice
T2 sequence (P47936 whole entry): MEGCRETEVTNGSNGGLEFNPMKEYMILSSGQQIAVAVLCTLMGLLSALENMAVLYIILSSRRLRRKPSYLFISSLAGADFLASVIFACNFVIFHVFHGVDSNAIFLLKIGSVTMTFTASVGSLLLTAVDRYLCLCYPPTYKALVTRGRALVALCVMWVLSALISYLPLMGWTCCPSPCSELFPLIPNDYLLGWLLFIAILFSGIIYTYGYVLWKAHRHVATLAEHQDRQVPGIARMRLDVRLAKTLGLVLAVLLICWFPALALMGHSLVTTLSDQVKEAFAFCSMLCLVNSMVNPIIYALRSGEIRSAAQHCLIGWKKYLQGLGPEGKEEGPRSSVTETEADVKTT
Nature of the assay: Autoradiographic displacement of [3H]CP55,940 on coronal mouse spleen sections. The format is binding. To be noted: read-out: Fractional occupancy of [3H]CP55,940 binding sites calculated by Gaddum equation. The procedure: Animal experiments were performed under procedures approved by the State of Saxony Animal Care and Use Committee and conducted in accordance with the German Law for the Protection of Animals. Female CD-1 mice (10 to 12 weeks old, 20 to 25 g), obtained from the Medizinisch-Experimentelles Zentrum der Universität Leipzig (Leipzig, Germany), were used for the experiments.
The animals were anesthetized and sacrificed, and their spleens were rapidly removed and frozen in isopentane at −35°C. The spleens were brought to −15°C in a cryostat (Microm International GmbH, Walldorf, Germany), and a series of 12-μm-thick coronal sections obtained from the spleens of three animals were collected in parallel on microscopic glass slides. The sections were dried at room temperature and stored at −35°C until they were processed for receptor binding autoradiography.
For autoradiographic experiments, the slides were brought to room temperature, dried in a stream of cold air, pre-incubated in a binding buffer (50 mM TRIS (pH 7.4) at 21°C, 5% BSA) for 15 min at room temperature and dried again in a stream of cold air. […] Samples were washed twice for 30 min at 4°C in 50 mM TRIS (pH 7.4) at 4°C, containing 1% BSA, dipped briefly in ice-cold deionized water (5 s), dried in a stream of cold air and exposed along with [^3H] standards (Amersham/GE Healthcare, Piscataway, NJ, USA) for 14 days to [^3H]-sensitive screen plates (Fuji Photo Film, Co. Ltd., Tokyo, Japan).
The image plates were analysed using a BAS-1800II system bioimaging analyser (Fuji Photo Film, Co. Ltd., Tokyo, Japan). Scan data were visualized and processed by computer-assisted microdensitometry (Aida version 2.31, Raytest Isotopenmessgeräte GmbH, Straubenhardt, Germany). Irregular regions of interest (ROIs) were drawn on selected areas of the spleen labelled as red pulp (low-density binding) and white pulp (high-density binding) according to Lynn and Herkenham and Massi et al..

Another assay addresses T3, hCB1 (Homo sapiens, UniProt P21554).
T3 construct: host or cells: CHO (hCB1-CHO), crude membrane homogenates
In words: Competitive [3H]CP55,940 binding on membrane homogenates of hCB1-CHO cells. The note with it: hCB1-CHO; read-out: Ki hCB1. The procedure:
as §1, §2
Binding data were analysed using GraphPad Prism version 2.01 (GraphPad Software, Inc., San Diego, CA, USA) by non-linear regression to provide estimates of the half maximal inhibitory concentration (IC50) values and the […]. […] The corresponding inhibition constants (Ki) of test compounds were derived from the IC50 values using the Cheng-Prusoff equation [49]. All binding experiments were performed in triplicates, and data are given as mean values from independent experiments.

Molecules are shown by their SMILES.

T3 sequence (P21554 whole entry): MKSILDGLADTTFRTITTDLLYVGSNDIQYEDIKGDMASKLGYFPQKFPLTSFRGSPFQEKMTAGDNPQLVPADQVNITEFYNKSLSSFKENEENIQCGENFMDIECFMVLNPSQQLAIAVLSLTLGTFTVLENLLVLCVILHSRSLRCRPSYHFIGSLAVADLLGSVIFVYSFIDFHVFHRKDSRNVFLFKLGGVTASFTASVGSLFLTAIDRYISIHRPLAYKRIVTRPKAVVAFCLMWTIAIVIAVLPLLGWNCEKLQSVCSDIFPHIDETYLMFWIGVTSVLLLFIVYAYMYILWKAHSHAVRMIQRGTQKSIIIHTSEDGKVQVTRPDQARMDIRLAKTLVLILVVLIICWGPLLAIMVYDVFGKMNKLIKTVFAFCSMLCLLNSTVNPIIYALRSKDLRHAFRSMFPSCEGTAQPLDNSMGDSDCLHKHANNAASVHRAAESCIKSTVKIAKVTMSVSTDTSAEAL

For `CCn1c2ccccc2c2cc(NC(=O)CCc3nc(-c4ccc(F)cc4F)no3)ccc21` [Compound 6h, 3-(3-(2,4-Difluorophenyl)-1,2,4-oxadiazol-5-yl)-N-(9-ethyl-9H-carbazol-3-yl)propanamide], at hCB2, the Ki was found to be 0.0394 µM and the “Selectivity over hCB1” value is “more than 1,000 fold”. Further, in assay [1], the receptor occupancy at 1 µM is 83%. Besides, at hCB1, the Ki is more than 1 µM.

For the compound `CCn1c2ccccc2c2cc(NC(=O)CCc3nc(-c4ccc(F)cc4Br)no3)ccc21` [Compound 6e, 3-(3-(2-Bromo-4-fluorophenyl)-1,2,4-oxadiazol-5-yl)-N-(9-ethyl-9H-carbazol-3-yl)propanamide], the “Selectivity over hCB1” value at hCB2 is “more than 1,000 fold”. Moreover, the receptor occupancy at 1 µM in assay [1] is 97%. In addition, the Ki on hCB1 was more than 1 µM.
